Assay [1] concerns the target 5-HT2B (h) (Homo sapiens, UniProt P41595). The settings on record: read-out: Ki Ref, reference compound (positive control).
The target in assay [2] is T1, proteases (Homo sapiens, UniProt P42574).
T1 construct: BPS Biosciences (contract assay)
In words: biochemical. The note with it: Caspase-3; reference at 100 nM.

The target in assay [3] is T2, proteases (Homo sapiens, UniProt P55210).
T2 construct: BPS Biosciences (contract assay)
Put plainly: biochemical. The note with it: Caspase-7; reference at 1 μM.

Assay [4] deals with T3, proteases (Hepatitis C virus genotype 1a, UniProt P27958, D1194V).
T3 construct: BPS Biosciences (contract assay)
Put plainly: biochemical. The note with it: serine protease NS3 (a.a. 3-181) from Hepatitis C virus genotype 1a (mutant D168 V); reference at 100 nM.

Assay [5] has as its target T4, proteases (Hepatitis C virus genotype 1b, UniProt P26663, R1181K).
T4 construct: BPS Biosciences (contract assay)
In words: biochemical. The settings on record: serine protease NS3 (a.a. 3-181) from Hepatitis C virus genotype 1b (mutant R155K); reference at 100 nM.

Assay [6] addresses T5, proteases (Hepatitis C virus genotype 2a, UniProt Q99IB8).
T5 construct: BPS Biosciences (contract assay)
In words: biochemical. The note with it: serine protease NS3 (a.a. 3-181) from Hepatitis C virus genotype 2a; reference at 100 nM.

The target in assay [7] is T6, proteases (Homo sapiens, UniProt O60911).
T6 construct: BPS Biosciences (contract assay)
In words: biochemical. The settings on record: Cathepsin V; reference at 100 nM.

Assay [8] concerns the target T7, proteases (Homo sapiens, UniProt P07711).
T7 construct: BPS Biosciences (contract assay)
In words: biochemical. The note with it: Cathepsin L; reference at 1 μM.

Assay [9] has as its target proteases (Homo sapiens, UniProt P07858). Put plainly: biochemical. The settings on record: Cathepsin B; reference at 100 nM.
For assay [10], the target named is T8, proteases (Homo sapiens, UniProt P25774).
T8 construct: BPS Biosciences (contract assay)
In words: biochemical. The note with it: Cathepsin S; reference at 100 nM.

Assay [11] has as its target T9, proteases (Homo sapiens, UniProt Q6V1X1).
T9 construct: BPS Biosciences (contract assay)
Put plainly: biochemical. The note with it: DPP8; reference at 200 μM.

Assay [12] deals with proteases (Homo sapiens, UniProt Q9UHL4). Put plainly: biochemical. The note with it: DPP7; reference at 200 μM.
Assay [13] concerns the target T10, proteases (Homo sapiens, UniProt P03956).
T10 construct: BPS Biosciences (contract assay)
Put plainly: biochemical. The settings on record: Matrix metalloprotease1; reference at 1 μM.

For assay [14], the target named is T11, proteases (Homo sapiens, UniProt P08253).
T11 construct: BPS Biosciences (contract assay)
Put plainly: biochemical. The note with it: Matrix metalloprotease 2; reference at 100 nM.

Assay [15] addresses T12, proteases (Homo sapiens, UniProt P14780, Q279R).
T12 construct: BPS Biosciences (contract assay)
Put plainly: biochemical. The settings on record: 0.1 µM.

Assay [16] has as its target T13, proteases (Homo sapiens, UniProt Q12884).
T13 construct: BPS Biosciences (contract assay)
Put plainly: biochemical. The settings on record: FAP; reference at 100 nM.

Assay [17] addresses alpha 1A (h) (Homo sapiens, UniProt P35348). The note with it: read-out: Ki Ref, reference compound (positive control).
In assay [18] the target is T14, proteases (Homo sapiens, UniProt P55212).
T14 construct: BPS Biosciences (contract assay)
Put plainly: biochemical. The settings on record: Caspase-6; reference at 1 μM.

Assay [19] addresses T15, proteases (Homo sapiens, UniProt Q14790).
T15 construct: BPS Biosciences (contract assay)
In words: biochemical. The note with it: Caspase-8; reference at 100 nM.

For assay [20], the target named is T16, proteases (Homo sapiens, UniProt Q9UBX1).
T16 construct: BPS Biosciences (contract assay)
Put plainly: biochemical. The settings on record: Cathepsin F; reference at 1 μM.

For assay [21], the target named is T17, proteases (Homo sapiens, UniProt O75604).
T17 construct: BPS Biosciences (contract assay)
Put plainly: biochemical. The note with it: Ubiquitin carboxy-terminal hydrolase 2; reference at 1 μM.

For assay [22], the target named is T18, proteases (Homo sapiens, UniProt P09936).
T18 construct: BPS Biosciences (contract assay)
In words: biochemical. The settings on record: Ubiquitin carboxy-terminal hydrolase L1; reference at 100 nM.

Assay [23] concerns the target T19, proteases (Homo sapiens, UniProt P15374).
T19 construct: BPS Biosciences (contract assay)
Put plainly: biochemical. The note with it: Ubiquitin carboxy-terminal hydrolase L3; reference at 10 nM.

For assay [24], the target named is T20, proteases (Homo sapiens, UniProt P40818).
T20 construct: BPS Biosciences (contract assay)
Put plainly: biochemical. The note with it: Ubiquitin carboxy-terminal hydrolase 8; reference at 1 μM.

Assay [25] deals with T21, proteases (Homo sapiens, UniProt P45974).
T21 construct: BPS Biosciences (contract assay)
In words: biochemical. The settings on record: Ubiquitin carboxy-terminal hydrolase 5; reference at 1 μM.

The target in assay [26] is T22, proteases (Homo sapiens, UniProt P54252).
T22 construct: BPS Biosciences (contract assay)
Put plainly: biochemical. The note with it: Ataxin3; reference at 10 μM.

Assay [27] deals with T23, proteases (Homo sapiens, UniProt P54578).
T23 construct: BPS Biosciences (contract assay)
In words: biochemical. The settings on record: Ubiquitin carboxy-terminal hydrolase 14; reference at 100 nM.

Assay [28] deals with T24, proteases (Homo sapiens, UniProt Q14694).
T24 construct: BPS Biosciences (contract assay)
In words: biochemical. The note with it: Ubiquitin carboxy-terminal hydrolase 10; reference at 1 μM.

For assay [29], the target named is T25, proteases (Homo sapiens, UniProt Q8N6M0).
T25 construct: BPS Biosciences (contract assay)
Put plainly: biochemical. The note with it: Deubiquitinase OTUD6B; reference at 1 μM.

In assay [30] the target is T26, proteases (Homo sapiens, UniProt Q93009).
T26 construct: BPS Biosciences (contract assay)
In words: biochemical. The settings on record: Ubiquitin carboxy-terminal hydrolase 7; reference at 1 μM.

T25 sequence (Q8N6M0 whole entry): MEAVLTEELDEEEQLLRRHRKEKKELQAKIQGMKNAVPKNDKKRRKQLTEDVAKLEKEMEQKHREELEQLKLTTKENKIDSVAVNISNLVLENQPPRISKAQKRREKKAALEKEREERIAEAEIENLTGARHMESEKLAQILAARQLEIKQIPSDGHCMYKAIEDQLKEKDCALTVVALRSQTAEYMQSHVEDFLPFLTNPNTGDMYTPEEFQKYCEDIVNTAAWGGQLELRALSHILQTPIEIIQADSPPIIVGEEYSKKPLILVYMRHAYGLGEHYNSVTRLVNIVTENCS
T2 sequence (P55210 whole entry): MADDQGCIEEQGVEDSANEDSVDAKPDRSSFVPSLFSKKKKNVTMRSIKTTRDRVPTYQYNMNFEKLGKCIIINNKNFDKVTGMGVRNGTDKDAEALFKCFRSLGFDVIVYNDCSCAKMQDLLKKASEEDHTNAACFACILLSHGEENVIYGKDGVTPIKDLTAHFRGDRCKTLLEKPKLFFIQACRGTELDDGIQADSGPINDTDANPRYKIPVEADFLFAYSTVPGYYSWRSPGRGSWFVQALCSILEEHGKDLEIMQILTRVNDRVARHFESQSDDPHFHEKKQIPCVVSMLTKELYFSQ
T13 sequence (Q12884 whole entry): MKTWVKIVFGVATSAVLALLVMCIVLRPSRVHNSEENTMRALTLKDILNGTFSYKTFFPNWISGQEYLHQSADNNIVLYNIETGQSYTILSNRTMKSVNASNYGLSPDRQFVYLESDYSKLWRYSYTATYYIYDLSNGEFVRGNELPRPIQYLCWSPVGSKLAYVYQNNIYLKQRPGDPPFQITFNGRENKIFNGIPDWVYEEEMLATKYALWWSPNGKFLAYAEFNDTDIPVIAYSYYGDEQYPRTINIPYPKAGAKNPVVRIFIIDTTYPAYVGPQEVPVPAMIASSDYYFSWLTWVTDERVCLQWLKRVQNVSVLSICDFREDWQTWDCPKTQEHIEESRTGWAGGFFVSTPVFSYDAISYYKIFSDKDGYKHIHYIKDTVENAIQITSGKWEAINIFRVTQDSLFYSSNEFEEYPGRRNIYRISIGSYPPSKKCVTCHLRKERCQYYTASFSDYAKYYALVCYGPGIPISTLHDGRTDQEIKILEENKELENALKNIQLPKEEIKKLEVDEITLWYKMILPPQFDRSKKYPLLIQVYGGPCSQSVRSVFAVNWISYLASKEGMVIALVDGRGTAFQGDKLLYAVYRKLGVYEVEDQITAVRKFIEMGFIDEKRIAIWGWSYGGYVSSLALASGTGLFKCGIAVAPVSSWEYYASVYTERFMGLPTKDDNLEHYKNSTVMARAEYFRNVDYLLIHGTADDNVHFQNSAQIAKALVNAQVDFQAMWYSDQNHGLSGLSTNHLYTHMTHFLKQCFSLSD
T23 sequence (P54578 whole entry): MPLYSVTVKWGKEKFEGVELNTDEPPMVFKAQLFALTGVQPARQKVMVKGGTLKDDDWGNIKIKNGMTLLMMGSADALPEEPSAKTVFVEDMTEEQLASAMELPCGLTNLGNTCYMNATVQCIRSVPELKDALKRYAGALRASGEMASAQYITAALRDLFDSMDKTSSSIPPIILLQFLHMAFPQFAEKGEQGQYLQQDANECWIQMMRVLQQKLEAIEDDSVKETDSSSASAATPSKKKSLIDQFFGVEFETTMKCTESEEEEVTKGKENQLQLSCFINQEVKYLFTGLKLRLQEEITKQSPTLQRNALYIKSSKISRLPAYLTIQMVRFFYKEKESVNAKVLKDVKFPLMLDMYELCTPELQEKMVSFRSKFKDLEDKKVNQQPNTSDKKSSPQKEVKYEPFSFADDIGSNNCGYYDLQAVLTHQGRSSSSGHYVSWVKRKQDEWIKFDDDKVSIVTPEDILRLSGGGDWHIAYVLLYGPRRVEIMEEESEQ
T22 sequence (P54252 whole entry): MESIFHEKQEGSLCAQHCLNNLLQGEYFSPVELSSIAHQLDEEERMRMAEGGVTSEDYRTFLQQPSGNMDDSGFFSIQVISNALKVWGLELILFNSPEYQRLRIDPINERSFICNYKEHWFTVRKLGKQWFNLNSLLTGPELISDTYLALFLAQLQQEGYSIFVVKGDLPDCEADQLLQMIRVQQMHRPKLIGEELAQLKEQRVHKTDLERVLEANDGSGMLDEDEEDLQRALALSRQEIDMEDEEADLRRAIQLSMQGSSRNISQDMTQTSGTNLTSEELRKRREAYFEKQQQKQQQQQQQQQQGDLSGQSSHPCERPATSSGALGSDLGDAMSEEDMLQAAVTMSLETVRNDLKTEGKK
T24 sequence (Q14694 whole entry): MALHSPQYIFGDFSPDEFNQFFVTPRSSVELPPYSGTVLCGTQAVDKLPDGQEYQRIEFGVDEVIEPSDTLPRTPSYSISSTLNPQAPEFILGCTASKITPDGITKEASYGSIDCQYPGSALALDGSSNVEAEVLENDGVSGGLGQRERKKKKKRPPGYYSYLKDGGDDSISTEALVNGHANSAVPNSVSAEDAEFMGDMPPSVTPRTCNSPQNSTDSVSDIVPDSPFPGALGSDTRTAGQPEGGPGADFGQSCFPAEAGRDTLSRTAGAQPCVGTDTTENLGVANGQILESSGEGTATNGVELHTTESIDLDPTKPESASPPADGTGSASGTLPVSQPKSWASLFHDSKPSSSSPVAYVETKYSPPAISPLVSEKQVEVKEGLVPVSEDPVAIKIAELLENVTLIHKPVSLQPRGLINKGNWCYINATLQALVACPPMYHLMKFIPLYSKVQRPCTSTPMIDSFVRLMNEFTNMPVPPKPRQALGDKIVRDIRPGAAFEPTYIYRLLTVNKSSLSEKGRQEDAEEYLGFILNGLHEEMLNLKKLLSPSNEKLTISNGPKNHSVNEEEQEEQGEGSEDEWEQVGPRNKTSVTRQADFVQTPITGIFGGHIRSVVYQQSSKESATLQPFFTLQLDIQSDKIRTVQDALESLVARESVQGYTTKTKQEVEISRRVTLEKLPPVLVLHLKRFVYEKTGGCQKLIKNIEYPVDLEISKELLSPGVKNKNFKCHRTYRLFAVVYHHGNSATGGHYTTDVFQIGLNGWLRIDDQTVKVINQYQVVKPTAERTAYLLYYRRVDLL
T20 sequence (P40818 whole entry): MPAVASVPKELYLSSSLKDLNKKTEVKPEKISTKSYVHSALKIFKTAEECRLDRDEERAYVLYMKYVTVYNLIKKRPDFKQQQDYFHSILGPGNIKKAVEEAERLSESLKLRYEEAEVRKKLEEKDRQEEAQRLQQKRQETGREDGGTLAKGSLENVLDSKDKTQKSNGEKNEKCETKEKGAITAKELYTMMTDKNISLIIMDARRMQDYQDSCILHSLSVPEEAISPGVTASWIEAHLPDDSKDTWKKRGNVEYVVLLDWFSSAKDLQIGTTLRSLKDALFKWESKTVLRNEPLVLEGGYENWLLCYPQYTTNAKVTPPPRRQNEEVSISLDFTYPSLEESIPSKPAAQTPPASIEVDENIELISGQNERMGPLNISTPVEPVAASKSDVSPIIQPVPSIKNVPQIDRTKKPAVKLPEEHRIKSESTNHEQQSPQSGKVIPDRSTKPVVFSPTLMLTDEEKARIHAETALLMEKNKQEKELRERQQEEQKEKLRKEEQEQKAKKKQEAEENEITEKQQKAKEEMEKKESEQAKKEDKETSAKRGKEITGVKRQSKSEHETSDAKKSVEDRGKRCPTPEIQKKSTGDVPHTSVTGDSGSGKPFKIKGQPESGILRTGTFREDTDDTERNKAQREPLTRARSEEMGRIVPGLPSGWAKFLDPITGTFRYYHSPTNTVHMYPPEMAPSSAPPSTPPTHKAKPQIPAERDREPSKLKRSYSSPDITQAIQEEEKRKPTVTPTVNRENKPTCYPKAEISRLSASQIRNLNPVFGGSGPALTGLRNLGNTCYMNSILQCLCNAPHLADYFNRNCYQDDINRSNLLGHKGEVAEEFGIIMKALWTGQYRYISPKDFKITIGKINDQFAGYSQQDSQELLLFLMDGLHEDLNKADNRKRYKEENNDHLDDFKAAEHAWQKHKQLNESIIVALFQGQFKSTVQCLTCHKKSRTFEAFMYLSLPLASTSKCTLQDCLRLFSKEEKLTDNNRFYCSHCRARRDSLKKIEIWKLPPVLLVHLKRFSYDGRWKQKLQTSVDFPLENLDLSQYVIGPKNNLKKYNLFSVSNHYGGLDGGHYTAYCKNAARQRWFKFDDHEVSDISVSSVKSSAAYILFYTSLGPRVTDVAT
T16 sequence (Q9UBX1 271-484): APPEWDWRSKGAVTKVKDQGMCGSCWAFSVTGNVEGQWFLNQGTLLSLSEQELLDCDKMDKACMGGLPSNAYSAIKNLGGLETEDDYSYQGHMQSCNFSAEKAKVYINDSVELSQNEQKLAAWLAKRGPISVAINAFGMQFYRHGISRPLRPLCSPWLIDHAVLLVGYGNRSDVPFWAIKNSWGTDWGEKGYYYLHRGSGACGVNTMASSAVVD
T17 sequence (O75604 whole entry): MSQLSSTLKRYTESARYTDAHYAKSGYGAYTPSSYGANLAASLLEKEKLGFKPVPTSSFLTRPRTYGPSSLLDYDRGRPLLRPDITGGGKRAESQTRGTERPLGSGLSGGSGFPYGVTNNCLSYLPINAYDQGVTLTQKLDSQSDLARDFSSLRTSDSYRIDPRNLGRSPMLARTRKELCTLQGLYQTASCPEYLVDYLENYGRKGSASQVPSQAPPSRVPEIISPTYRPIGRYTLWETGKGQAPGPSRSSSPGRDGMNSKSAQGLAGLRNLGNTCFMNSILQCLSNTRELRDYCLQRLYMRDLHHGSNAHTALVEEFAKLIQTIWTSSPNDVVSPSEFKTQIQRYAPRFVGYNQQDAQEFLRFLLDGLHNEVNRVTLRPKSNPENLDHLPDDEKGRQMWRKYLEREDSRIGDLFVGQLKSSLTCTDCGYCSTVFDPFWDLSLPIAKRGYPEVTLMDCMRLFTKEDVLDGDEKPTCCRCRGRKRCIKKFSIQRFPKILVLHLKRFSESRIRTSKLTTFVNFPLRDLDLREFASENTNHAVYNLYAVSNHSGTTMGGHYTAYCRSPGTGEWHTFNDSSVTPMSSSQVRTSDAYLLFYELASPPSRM

The Ki is a measure of affinity in units of concentration, obtained from inhibition or displacement. With `COc1cc(CC(C)N)c(OC)cc1I` (racemic) [(±)DOI], in assay [1], the Ki is 4.2 nM.

For the compound `COC[C@@H]1CCCN1S(=O)(=O)c1ccc2c(c1)C(=O)C(=O)N2` [Caspase 3/7 Inhibitor I], the “Percentage inhibition (%) Reference” value in assay [2] was found to be 89%; in assay [3], 92%.

For `CC(C)(C)OC(=O)N[C@H]1CCCCC/C=C\[C@@H]2C[C@@]2(C(=O)NS(=O)(=O)C2CC2)NC(=O)[C@@H]2C[C@@H](OC(=O)N3Cc4cccc(F)c4C3)CN2C1=O` [Denoprevir], the “Percentage inhibition (%) Reference” value turned out to be 94% in [4], 90% in assay [5] and 98% in assay [6].

On to `CC(C)C[C@H](NC(=O)[C@H]1O[C@@H]1C(=O)O)C(=O)NCCCCN=C(N)N` [E-64], for which the “Percentage inhibition (%) Reference” value in assay [7] worked out at 83%; in [8], 97%; in assay [9], 97%; in [10] it was 91%.

For `N#Cc1ccc(NCCNCC(=O)N2N=CCC2C#N)nc1` (stereo not drawn) [KR62436], the “Percentage inhibition (%) Reference” value is given as 96% in assay [11] and 83% in assay [12].

As for `COc1ccc(S(=O)(=O)N(CC(=O)NO)CC(C)C)cc1` [NNGH], the “Percentage inhibition (%) Reference” value amounted to 87% in assay [13], 95% in assay [14] and 92% in [15].

With `N#C[C@@H]1CC(F)(F)CN1C(=O)CNC(=O)c1ccnc2ccccc12` [SP-13786], the “Percentage inhibition (%) Reference” value in assay [16] was 100%.

In the case of `COc1cccc(OC)c1OCCNCC1COc2ccccc2O1` (stereo not drawn) [WB 4101], in assay [17], the Ki is 0.24 nM.

In the case of Caspase 8 Inhibitor I, the results for the “Percentage inhibition (%) Reference” value in [18] and in [19] were 94% and 87%, respectively.

On to Cystatin C, for which the “Percentage inhibition (%) Reference” value in assay [20] stood at 74%.

Regarding Ub-Aldehyde, the “Percentage inhibition (%) Reference” value was 91% in assay [21]; 92% in assay [22]; 95% in assay [23]; 73% in [24]; 84% in assay [25]; 77% in assay [26]. The “Percentage inhibition (%) Reference” value worked out at 96% in assay [27], 82% in [28], 97% in assay [29] and 95% in assay [30].
